# Reference: patent US20100267561A1, “HERBICIDAL PYRIDAZINONE DERIVATIVES” (priority 2007, published 2010)
# Assays:
# Type in all cases: in vivo
# [1] = tested on: barnyardgrass (Echinochloa crus-galli); assay: Test A pre-/postemergence plant response
# Outline: (§1)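 Ratings run 0–100 (100 = complete control), assigned visually against untreated controls roughly 10 days after treatment in a greenhouse. Compounds, formulated in non-phytotoxic solvent containing surfactant, were applied as a soil-directed preemergence spray and concurrently postemergence to one- to two-leaf plants 2–10 cm tall.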
# [2] = tested on: pigweed (Amaranthus retroflexus); assay: Test A pre-/postemergence plant response
# Outline: as §1
# corn (Zea mays) = assay: Test A pre-/postemergence plant response
# Outline: as §1
# [3] = tested on: wheat (Triticum aestivum); assay: Test A pre-/postemergence plant response
# Outline: as §1
# [4] = tested on: pigweed (Amaranthus retroflexus); assay: Test B pre-/postemergence plant response
# Outline: (§2)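 Visual scoring from 0 (no effect) to 100 (complete control) against untreated controls was done 13 to 15 days after greenhouse treatment. Chemicals were formulated in a surfactant-containing non-phytotoxic solvent and applied to soil preemergence or to 1- to 4-leaf (2-18 cm) plants postemergence.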
# [5] = tested on: johnsongrass (Sorghum halepense); assay: Test B pre-/postemergence plant response
# Outline: as §2
# [6] = tested on: catchweed bedstraw (Galium aparine); assay: Test B pre-/postemergence plant response; conditions: Preemergence
# Outline: as §2
# [7] = tested on: chickweed (Stellaria media); assay: Test B postemergence plant response; conditions: for Chickweed plant response rating: postemergence, 0-100 scale; for Plant response rating, Chickweed: Postemergence
# Outline: (§3)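 Visual injury score from 0 (none) to 100 (complete control) versus controls, taken 13 to 15 days after treatment in the greenhouse; chemicals applied postemergence, as formulated, to plants of 1- to 4-leaf stage (2 to 18 cm tall); dash denotes no test result.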
# [8] = tested on: winter barley (Hordeum vulgare); assay: Test B postemergence plant response; conditions: for Barley plant response rating: postemergence; for Plant response rating, Barley: Postemergence, scale 0 to 100, 0 no effect, 100 complete control
# Outline: as §3
# [9] = tested on: windgrass (Apera spica-venti); assay: Test B postemergence plant response; conditions: for Windgrass plant response rating: postemergence, 0-100 scale; for Plant response rating, Windgrass: Postemergence
# Outline: as §3
# [10] = tested on: canarygrass (Phalaris minor); assay: Test B postemergence plant response; conditions: for Canarygrass plant response rating: postemergence, 0-100 scale; for Plant response rating, Canarygrass: Postemergence
# Outline: as §3
# [11] = Postemergence, 31 g ai/ha, 0 to 100 scale, 0 no effect, 100 complete control
# [12] = Postemergence, 125 g ai/ha, 0 to 100 scale, 0 no effect, 100 complete control
# [13] = Preemergence, 31 g ai/ha, 0 to 100 scale, 0 is no effect, 100 is complete control
# [14] = Preemergence, 125 g ai/ha, 0 to 100 scale (0 no effect, 100 complete control)
# [15] = 8 g ai/ha, postemergence, 0-100 scale
# [16] = 16 g ai/ha, postemergence, 0-100 scale
# [17] = Postemergence, 31 g ai/ha, scale 0 to 100
# [18] = Postemergence, 62 g ai/ha, scale 0 to 100, 0 no effect, 100 complete control
# [19] = Preemergence, 8 g ai/ha, scale 0 to 100 (0 no effect, 100 complete control)
# [20] = Preemergence, 31 g ai/ha, scale 0 to 100 (0 no effect, 100 complete control)
# [21] = Preemergence, 62 g ai/ha, 0 to 100 scale, 0 no effect, 100 complete control
# [22] = Preemergence, 16 g ai/ha, scale 0 to 100
# [23] = 31 g ai/ha, scale 0 to 100 (0 no effect, 100 complete control)
# [24] = 62 g ai/ha, 0 to 100 scale, 0 no effect, 100 complete control
# [25] = 62 g ai/ha, scale 0 to 100, 0 no effect, 100 complete control
# [26] = 16 g ai/ha, 0-100 scale (0 no effect, 100 complete control)
smiles,measurement,setting,value
COc1nn(C)c(=O)c(-n2nc(-c3ccc(Br)cc3)cc2C)c1O [Compound 82],"Plant response rating, Barnyardgrass",[1]; [11],100
same,"Plant response rating, Barnyardgrass",[1]; [12],100
same,"Plant response rating, Barnyardgrass",[1]; [13],50
same,"Plant response rating, Barnyardgrass",[1]; [14],100
same,"Plant response rating, Pigweed",[2]; [11],0
same,"Plant response rating, Pigweed",[2]; [12],0
same,"Plant response rating, Pigweed",[2]; [13],0
same,"Plant response rating, Pigweed",[2]; [14],0
same,"Plant response rating, Corn",corn (Zea mays); [11],80
same,"Plant response rating, Corn",corn (Zea mays); [12],100
same,"Plant response rating, Corn",corn (Zea mays); [13],40
same,"Plant response rating, Corn",corn (Zea mays); [14],50
same,"Plant response rating, Wheat",[3]; [11],90
same,"Plant response rating, Wheat",[3]; [12],100
same,"Plant response rating, Wheat",[3]; [13],50
same,"Plant response rating, Wheat",[3]; [14],90
same,Pigweed plant response rating,[4]; [15],0
same,Pigweed plant response rating,[4]; [16],0
same,"Plant response rating, Pigweed",[4]; [17],0
same,"Plant response rating, Pigweed",[4]; [18],0
same,Pigweed plant response rating,[4]; [19],0
same,"Plant response rating, Pigweed",[4]; [20],0
same,"Plant response rating, Pigweed",[4]; [21],0
same,Johnsongrass plant response rating,[5]; [15],100
same,Johnsongrass plant response rating,[5]; [16],100
same,"Plant response rating, Johnsongrass",[5]; [17],100
same,"Plant response rating, Johnsongrass",[5]; [18],100
same,Johnsongrass plant response rating,[5]; [19],70
same,"Plant response rating, Johnsongrass",[5]; [20],98
same,"Plant response rating, Johnsongrass",[5]; [21],100
same,Johnsongrass plant response rating,[5]; [22],85
same,"Plant response rating, Galium",[6]; [23],50
same,"Plant response rating, Galium",[6]; [24],50
same,Chickweed plant response rating,[7]; 8 g ai/ha,0
same,Chickweed plant response rating,[7]; 16 g ai/ha,0
same,"Plant response rating, Chickweed","[7]; 31 g ai/ha, scale 0 to 100",0
same,"Plant response rating, Chickweed",[7]; [25],90
same,Barley plant response rating,"[8]; 8 g ai/ha, 0-100 scale",90
same,Barley plant response rating,[8]; [26],98
same,"Plant response rating, Barley",[8]; 31 g ai/ha,100
same,"Plant response rating, Barley",[8]; 62 g ai/ha,100
same,Windgrass plant response rating,[9]; 8 g ai/ha,70
same,Windgrass plant response rating,[9]; 16 g ai/ha,100
same,"Plant response rating, Windgrass","[9]; 31 g ai/ha, scale 0 to 100",100
same,"Plant response rating, Windgrass",[9]; [25],100
same,Canarygrass plant response rating,[10]; 8 g ai/ha,80
same,Canarygrass plant response rating,[10]; 16 g ai/ha,95
same,"Plant response rating, Canarygrass","[10]; 31 g ai/ha, scale 0 to 100",100
same,"Plant response rating, Canarygrass",[10]; [25],100
CCc1c(C)c(-c2ccc(Br)cc2)nn1-c1c(O)cnn(C)c1=O [Compound 83],"Plant response rating, Barnyardgrass",[1]; [11],100
same,"Plant response rating, Barnyardgrass",[1]; [12],100
same,"Plant response rating, Barnyardgrass",[1]; [13],20
same,"Plant response rating, Barnyardgrass",[1]; [14],100
same,"Plant response rating, Pigweed",[2]; [11],0
same,"Plant response rating, Pigweed",[2]; [12],0
same,"Plant response rating, Pigweed",[2]; [13],0
same,"Plant response rating, Pigweed",[2]; [14],30
same,"Plant response rating, Corn",corn (Zea mays); [11],0
same,"Plant response rating, Corn",corn (Zea mays); [12],100
same,"Plant response rating, Corn",corn (Zea mays); [13],0
same,"Plant response rating, Corn",corn (Zea mays); [14],40
same,"Plant response rating, Wheat",[3]; [11],0
same,"Plant response rating, Wheat",[3]; [12],60
same,"Plant response rating, Wheat",[3]; [13],0
same,"Plant response rating, Wheat",[3]; [14],30
same,Pigweed plant response rating,[4]; [15],0
same,Pigweed plant response rating,[4]; [16],0
same,"Plant response rating, Pigweed",[4]; [17],0
same,"Plant response rating, Pigweed",[4]; [18],20
same,Pigweed plant response rating,[4]; [19],0
same,"Plant response rating, Pigweed",[4]; [20],0
same,"Plant response rating, Pigweed",[4]; [21],0
same,Pigweed plant response rating,[4]; [22],0
same,Johnsongrass plant response rating,[5]; [15],65
same,Johnsongrass plant response rating,[5]; [16],70
same,"Plant response rating, Johnsongrass",[5]; [17],98
same,"Plant response rating, Johnsongrass",[5]; [18],100
same,Johnsongrass plant response rating,[5]; [19],55
same,"Plant response rating, Johnsongrass",[5]; [20],95
same,"Plant response rating, Johnsongrass",[5]; [21],98
same,Johnsongrass plant response rating,[5]; [22],85
same,Galium plant response rating,"[6]; 8 g ai/ha, scale 0 to 100 (0 no effect, 100 complete control)",0
same,"Plant response rating, Galium",[6]; [23],0
same,"Plant response rating, Galium",[6]; [24],0
same,Galium plant response rating,"[6]; 16 g ai/ha, scale 0 to 100",0
same,Chickweed plant response rating,[7]; 8 g ai/ha,0
same,Chickweed plant response rating,[7]; 16 g ai/ha,0
same,"Plant response rating, Chickweed","[7]; 31 g ai/ha, scale 0 to 100",0
same,"Plant response rating, Chickweed",[7]; [25],0
same,Barley plant response rating,"[8]; 8 g ai/ha, 0-100 scale",0
same,Barley plant response rating,[8]; [26],0
same,"Plant response rating, Barley",[8]; 31 g ai/ha,45
same,"Plant response rating, Barley",[8]; 62 g ai/ha,45
same,Windgrass plant response rating,[9]; 8 g ai/ha,90
same,Windgrass plant response rating,[9]; 16 g ai/ha,98
same,"Plant response rating, Windgrass","[9]; 31 g ai/ha, scale 0 to 100",100
same,"Plant response rating, Windgrass",[9]; [25],100
same,Canarygrass plant response rating,[10]; 8 g ai/ha,65
same,"Plant response rating, Canarygrass","[10]; 31 g ai/ha, scale 0 to 100",90
same,"Plant response rating, Canarygrass",[10]; [25],90
